{"source": "patent US8962600B2", "about": "“Neuroprotective compounds and their use” (The Medical College of Wisconsin, Inc., priority 2009, dated 2015)", "format_in_all_cases": "in vivo, C57BL/6 mice", "key": {"[1]": {"tested_on": "IBA-1", "assay": "IBA-1 expression in substantia nigra (microglial activation), immunostaining", "conditions": "diapocynin 300 mg/kg gavage, 1 day pre-treatment + 4 days co-treatment with MPTP 25 mg/kg i.p.", "description": "(§1) For checking inflammatory and oxidative stress markers, mice were gavaged diapocynin (300 mg/kg dose) 1 day before MPTP treatment (pre-treatment) and continued for another 4 days of co-treatment with MPTP. In the sub-acute MPTP regimen, MPTP (25 mg/kg) was injected intraperitoneally once per day from day 2 to day 7. Control mice received saline at the same dosage.\n(§2) Four days after MPTP treatment, mice were perfused with 4% paraformaldehyde (PFA) and post-fixed with PFA and 30% sucrose, respectively. Next, fixed brains were cut into 30 μm sections and kept in 30% sucrose-ethylene glycol solutions at −20° C. On the day of staining, sections were rinsed with phosphate-buffered saline (PBS) and incubated with different primary antibodies, including anti-IBA-1 (DAKO, Carpinteria, Calif.), anti-GFAP (Millipore, Billerica, Mass.), anti-iNOS (Santa Cruz Biotechnology, Santa Cruz, Calif.), anti-3NT (Millipore), anti-4HNE (R&D Systems, Minneapolis, Minn.) and anti-gp91phox (Santa Cruz Biotechnology) for overnight at 4° C. Appropriate secondary antibodies (Alexa Fluor 488, 594, or 555 from Invitrogen, Carlsbad, Calif.) were used followed by incubation with 10 μg/ml Hoechst 33342 for 5 min at room temperature to stain the nucleus. Sections were viewed under a Nikon inverted fluorescence microscope (model TE-2000U; Nikon, Tokyo, Japan). […]"}, "[2]": {"tested_on": "tyrosine hydroxylase (TH)", "assay": "Tyrosine hydroxylase expression in striatum and substantia nigra, Western blot and DAB immunostaining", "description": "(§3) Six- to 8-week-old C57BL/6 mice weighing 24 to 28 g were housed in standard conditions of constant temperature (22±1° C.), humidity (relative, 30%), and a 12-h light/dark cycle. Mice were allowed free access to food and water. Use of the animals and protocol procedures were approved and supervised by the Committee on Animal Care at Iowa State University (Ames, Iowa). For neurodegeneration studies, mice either received diapocynin (300 mg/kg dose) by oral gavage for 1 day (pre-treatment before MPTP administration), 5 days (co-treatment with MPTP), or 7 days (post-treatment after MPTP).\nDAB immunostaining was performed in striatal and substantia nigra sections as described previously (57). In brief, 1 day or 7 days after final dosing of MPTP, mice were sacrificed and perfused with 4% PFA and post-fixed with PFA and 30% sucrose, respectively. Next, fixed brains were cut into 30 μm sections and kept in 30% sucrose-ethylene glycol solutions at −20° C. On the day of staining, sections were rinsed with PBS and incubated with either anti-TH (rabbit anti-mouse, 1:1800; Calbiochem, Gibstown, N.J.), anti-IBA-1 (goat anti-mouse, 1:1000; Dako), anti-GFAP (mouse anti-mouse, 1:1000; Millipore, Billerica, Mass.), or anti-gp91phox (mouse anti-mouse, 1:500; Santa Cruz Biotechnology) overnight at 4° C. […]"}, "[3]": {"tested_on": "3-nitrotyrosine (3-NT)", "assay": "3-nitrotyrosine expression in substantia nigra, Western blot and immunostaining", "description": "as §1, §2"}, "[4]": {"tested_on": "MPTP-intoxicated mice", "assay": "Open Field locomotor activity in MPTP-injected mice", "conditions": "MPTP- and diapocynin-treated mice; 300 mg/kg oral gavage; 5 days after last MPTP injection; 10 min session", "description": "as §3\nTwo types of behavioral tests were performed including an Open Field experiment for testing locomotor activities and a Rotarod experiment to test coordination of movement of mice after MPTP and diapocynin treatment (48, 56). An Open Field activity monitor (model RXYZCM-16; AccuScan, Columbus, Ohio) was used to measure the spontaneous activity of mice. The activity chamber was 40×40×30.5 cm, made of clear PLEXIGLAS® and covered with a PLEXIGLAS® lid with holes for ventilation. Infrared monitoring sensors were located every 2.54 cm along the perimeter (16 infrared beams along each side) and 2.5 cm above the floor. Two additional sets of 16 sensors were located 8.0 cm above the floor on opposite sides. Data were collected and analyzed by a VersaMax Analyzer (model CDA-8, AccuScan). […]"}, "[5]": {"tested_on": "gp91phox", "assay": "gp91phox expression in substantia nigra, Western blot and DAB immunostaining", "description": "as §1, §2"}}, "data": [{"molecule": "COc1cc(C(C)=O)cc(-c2cc(C(C)=O)cc(OC)c2O)c1O", "note": "[diapocynin]", "values": [{"measurement": "IBA-1 protein expression in substantia nigra", "setting": "[1]", "result": "inhibition"}, {"measurement": "expression of TH in striatum and substantia nigra (Western blot)", "setting": "[2]; MPTP- and diapocynin-treated mice, 300 mg/kg oral gavage", "result": "less reduction"}, {"measurement": "loss of TH-positive neurons and terminals in striatum and substantia nigra (TH-DAB immunostaining)", "setting": "[2]; MPTP-treated mice with diapocynin treatment 300 mg/kg oral gavage", "result": "substantially prevented"}, {"measurement": "MPTP-induced expression of 3-NT in substantia nigra", "setting": "[3]; diapocynin 300 mg/kg gavage, MPTP 25 mg/kg i.p.", "result": "attenuated"}, {"measurement": "TH positive cells colocalized with 3-NT", "setting": "[3]; double-labeling, MPTP-treated mice that also received diapocynin 300 mg/kg", "result": "very few"}, {"measurement": "horizontal activity (Open Field)", "setting": "[4]", "result": "significantly improved"}, {"measurement": "vertical activity (Open Field)", "setting": "[4]", "result": "significantly improved"}, {"measurement": "MPTP-induced expression of gp91phox in substantia nigra", "setting": "[5]; diapocynin 300 mg/kg gavage, MPTP 25 mg/kg i.p., Western blot and DAB immunostaining", "result": "attenuated"}, {"measurement": "colocalization of gp91phox with IBA-1 positive cells", "setting": "[5]; double-labeling, mice treated with MPTP and diapocynin 300 mg/kg", "result": "no colocalization"}]}]}
